Source: patent US20090246250A1, “COATING COMPOSITIONS HAVING IMPROVED PERFORMANCE” (priority 2008, published 2009)
Square brackets hold non-standard residues; d marks the D form. Ends that are not written are not given here. AEEA = NCCOCCOCC(=O)O

Key:
[1] = system: Staphylococcus aureus strain MZ100; assay: Tibia pin assay: coated titanium pins with vancomycin, bacterial cfu count; format: cell-based; set-up: key: —: “-” means no cfus; “many” means too many cfus to count, as they converge into one spot; conditions: 3 hours 37° C.
Description: In this assay, titanium pins were used as a model for tibia pins. Briefly, sterile pins were first coated with biofunctional composition (“SEQ ID NO:124-linker-SEQ ID NO:122”) comprising a substrate-binding peptide having binding specificity for vancomycin (“SEQ ID NO:124”) linked to a substrate-binding peptide having binding specificity for metal (“SEQ ID NO:122”), or a composition of the invention formed from compound comprising the biofunctional composition covalently coupled to fatty acid. The respective coatings also include vancomycin bound thereto. The coated pins were then placed in a silicone tube containing liquid bacterial growth medium and inoculated with bacteria. After incubation, the pins were removed, and then the liquid growth medium was serially diluted. The serial dilutions were inoculated onto bacterial culture plates, the plates were incubated, and counted on the plates were bacterial colonies.
In this assay, test samples (biofunctional composition (Table 6, “BC”) or compositions 133, 134, 135, 136 139) each were used to coat a pin by incubating the test sample (in a range of from about 0.8 mM to about 1 mM) with 2.5 μl of a 10 mM vancomycin solution and PBS to a final volume of 250 μl in a microtube (3 pins per tube) for 60 minutes at room temperature with occasional agitation. In a piece of silicone tubing (1.5 mm inner diameter, 50 mm long), added is tryptic soy broth+0.2% glucose, the coated pin, and 10^3 colony forming units (cfu) of Staphylococcus aureus strain MZ100 in either a 20 μl inoculum, 40 μl inoculum, or 60 μl inoculum. The tubing is clamped closed, and the tubing is incubated for 37° C. for 3 hours. After 3 hours, serial dilutions (1:10, 1:100, 1:1000) were made of the culture media from each tubing, and 10 μl of the undiluted culture medium and of each dilution were spotted onto the bacterial culture plate. The bacterial culture plate was incubated overnight at 37° C., and then the cfus were counted. The results, a composite of different assay runs, are shown in Table 6 (“-” means no cfus; “many” means too many cfus to count, as they converge into one spot; “NT” means not tested).

[2] = Vancomycin loading onto coated titanium bead (HCl elution, HPLC); format: binding; conditions: peptide/polymer + vancomycin mixture 30 mins 20° C., PBS washes, 100 mM HCl eluate by HPLC
Description: The experimental procedure used for the embodiments described above was as follows. […] All three components were mixed and then applied to the metal bead. […] All three components were mixed and then applied to the metal bead. […] The mixtures were applied to the metal beads and incubated for 30 mins at 20° C. with 700 rpm shaking. The beads were washed three times with 350 ul PBS. Beads were analyzed as follows: 200 ul of 100 mM HCl was added to each bead and incubated for 30 mins at 20° C. with 1,000 rpm shaking. The eluate from each bead was analyzed by HPLC using Phenomenex Luna 3 um column, 50×4.60 mm. Output was compared to a standard curve for vancomycin to determine the amount of vancomycin retained onto the metal bead.

SSSCLIDMYGVCHNFDGAYDSSRG [Compound 134, AUD-AUD-AUD-AUD-SEQ ID NO:124-linker-SEQ ID NO:122]
cfu 1:10 ([1]; inoculum volume 20 μl): —
cfu 1:100 ([1]; inoculum volume 20 μl): —
cfu 1:1000 ([1]; inoculum volume 20 μl): —
cfu undiluted ([1]; inoculum volume 20 μl): —
cfu 1:10 ([1]; inoculum volume 40 μl): 6 cfu
cfu 1:100 ([1]; inoculum volume 40 μl): 1 cfu
cfu 1:1000 ([1]; inoculum volume 40 μl): —
cfu undiluted ([1]; inoculum volume 40 μl): many
cfu 1:10 ([1]; inoculum volume 60 μl): 17 cfu
cfu 1:100 ([1]; inoculum volume 60 μl): 5 cfu
cfu 1:1000 ([1]; inoculum volume 60 μl): —
cfu undiluted ([1]; inoculum volume 60 μl): many

SSSCLIDMYGVCHNFDGAYDSSRG-miniPeg-miniPeg-SSHRTNHKKNNPKKKNKTRGSSGK (SSSCLIDMYGVCHNFDGAYDSSRG[AEEA][AEEA]SSHRTNHKKNNPKKKNKTRGSSGK; not fully specified (bridges); printed as SSSCLIDMYGVCHNFDGAYDSSRG-miniPeg-miniPeg-SSHRTNHKKNNPKKKNKTRGSSGK; cysteine pairing not given here) [SEQ ID NO:163]
Vancomycin Load [2]: 54 pmol/cm2

MA-AHx-SSCLIDIYGVCHN FDAY-miniPeg-miniPeg-YFRAFRKFVKPFKRAFKGSSK(Biotin) [SEQ ID NO:165]
Vancomycin Load [2]: 1,700 pmol/cm2
